Like-named read-outs stand apart in the source and are kept apart here.

Results on 24 compounds are retold here after patent publication US11566022B2, “3-(5-methoxy-1-oxoisoindolin-2-yl)piperidine-2,6-dione derivatives and uses thereof” (NOVARTIS AG, priority 2019, dated 2023).

The target in the experiment is HiBit-WIZ fusion protein (Homo sapiens, UniProt O95785+Q96SW2). The experiment in a line: Quantification of WIZ protein levels in HiBit tag fusion protein assay (WIZ HiBit assay in 293T cells). More on the design: Dmax: dose or concentration left out as unconfirmed. The experiment is classed as cell-based. To be noted: for Dmax / remaining activity at up to 25 µM / remaining activity: HEK-293T, 293T cells; for remaining activity at up to 25 µM: DMSO-normalized, curve-fitted percentage of WIZ-HiBit remaining at 25 uM, read-out: WIZ Amax; for DC50: WIZ HiBit assay in 293T cells, 10-point, 5-fold dose response, highest concentration 25 μM, about 18 hours, read-out: WIZ AC50; for remaining activity: read-out: WIZ Amax, DMSO-normalized, curve-fitted percentage of WIZ-HiBit remaining at 25 uM.

[1] abbreviates: 100 minus Amax, read-out: % degradation of WIZ (100-Amax).
The mark [2] stands for this setting: read-out: % degradation of WIZ (100-Amax), 100 minus Amax.

HiBit-WIZ fusion protein, sequence (O95785 whole entry, the tested form may be a part): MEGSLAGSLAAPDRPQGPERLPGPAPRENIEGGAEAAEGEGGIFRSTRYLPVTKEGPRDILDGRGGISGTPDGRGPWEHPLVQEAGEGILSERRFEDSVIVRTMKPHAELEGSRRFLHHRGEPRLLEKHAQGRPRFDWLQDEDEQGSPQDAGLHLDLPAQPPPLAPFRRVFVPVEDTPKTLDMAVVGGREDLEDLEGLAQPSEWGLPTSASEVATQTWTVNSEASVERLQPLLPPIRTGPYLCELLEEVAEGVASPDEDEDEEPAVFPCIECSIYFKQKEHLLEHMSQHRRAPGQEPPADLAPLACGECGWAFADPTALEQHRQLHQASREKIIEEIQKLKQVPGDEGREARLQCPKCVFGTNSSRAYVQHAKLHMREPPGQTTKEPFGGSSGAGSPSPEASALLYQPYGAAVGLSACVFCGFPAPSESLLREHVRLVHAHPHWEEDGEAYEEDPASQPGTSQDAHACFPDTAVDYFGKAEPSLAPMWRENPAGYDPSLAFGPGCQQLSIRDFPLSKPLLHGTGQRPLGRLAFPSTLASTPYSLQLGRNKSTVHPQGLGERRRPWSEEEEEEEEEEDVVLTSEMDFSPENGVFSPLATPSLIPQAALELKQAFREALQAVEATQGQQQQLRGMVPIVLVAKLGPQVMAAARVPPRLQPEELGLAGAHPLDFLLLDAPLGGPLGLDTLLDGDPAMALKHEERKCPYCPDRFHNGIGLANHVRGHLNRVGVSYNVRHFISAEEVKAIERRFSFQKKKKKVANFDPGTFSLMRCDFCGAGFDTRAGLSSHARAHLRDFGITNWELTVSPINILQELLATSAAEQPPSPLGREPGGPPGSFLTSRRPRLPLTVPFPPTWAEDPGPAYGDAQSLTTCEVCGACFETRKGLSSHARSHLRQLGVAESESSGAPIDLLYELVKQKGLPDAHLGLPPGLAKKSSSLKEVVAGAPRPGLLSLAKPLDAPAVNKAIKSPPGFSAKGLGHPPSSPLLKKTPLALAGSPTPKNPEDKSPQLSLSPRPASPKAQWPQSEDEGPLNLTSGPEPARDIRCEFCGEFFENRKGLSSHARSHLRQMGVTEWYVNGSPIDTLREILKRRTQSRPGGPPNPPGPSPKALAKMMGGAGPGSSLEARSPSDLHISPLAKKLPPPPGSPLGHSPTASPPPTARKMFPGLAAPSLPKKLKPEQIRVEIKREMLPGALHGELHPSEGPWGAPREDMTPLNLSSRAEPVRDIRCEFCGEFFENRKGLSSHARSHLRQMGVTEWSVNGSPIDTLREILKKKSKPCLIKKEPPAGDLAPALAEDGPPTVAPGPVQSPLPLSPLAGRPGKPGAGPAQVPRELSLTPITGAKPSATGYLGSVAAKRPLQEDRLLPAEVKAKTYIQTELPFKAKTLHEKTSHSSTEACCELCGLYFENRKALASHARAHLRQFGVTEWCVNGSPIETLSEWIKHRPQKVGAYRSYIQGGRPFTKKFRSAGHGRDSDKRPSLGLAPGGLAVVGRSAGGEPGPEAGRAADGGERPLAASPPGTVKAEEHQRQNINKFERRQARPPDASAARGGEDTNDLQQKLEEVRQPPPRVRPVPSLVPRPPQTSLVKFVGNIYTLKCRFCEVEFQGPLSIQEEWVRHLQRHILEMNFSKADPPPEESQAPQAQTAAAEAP
HiBit-WIZ fusion protein, sequence (Q96SW2 whole entry, the tested form may be a part): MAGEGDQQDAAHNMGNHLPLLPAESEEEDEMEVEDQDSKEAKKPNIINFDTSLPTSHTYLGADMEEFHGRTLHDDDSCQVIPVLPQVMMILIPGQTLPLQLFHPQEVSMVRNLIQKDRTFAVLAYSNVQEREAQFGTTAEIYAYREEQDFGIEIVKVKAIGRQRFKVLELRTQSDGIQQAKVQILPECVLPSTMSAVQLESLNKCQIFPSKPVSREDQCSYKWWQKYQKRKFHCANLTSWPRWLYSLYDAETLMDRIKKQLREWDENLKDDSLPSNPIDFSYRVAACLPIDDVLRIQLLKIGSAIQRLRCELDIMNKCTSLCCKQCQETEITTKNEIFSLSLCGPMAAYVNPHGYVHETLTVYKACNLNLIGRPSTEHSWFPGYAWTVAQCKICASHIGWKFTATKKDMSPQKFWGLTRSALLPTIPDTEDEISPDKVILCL
HiBit-WIZ fusion protein, sequence (Q16531 whole entry partner, the tested form may be a part): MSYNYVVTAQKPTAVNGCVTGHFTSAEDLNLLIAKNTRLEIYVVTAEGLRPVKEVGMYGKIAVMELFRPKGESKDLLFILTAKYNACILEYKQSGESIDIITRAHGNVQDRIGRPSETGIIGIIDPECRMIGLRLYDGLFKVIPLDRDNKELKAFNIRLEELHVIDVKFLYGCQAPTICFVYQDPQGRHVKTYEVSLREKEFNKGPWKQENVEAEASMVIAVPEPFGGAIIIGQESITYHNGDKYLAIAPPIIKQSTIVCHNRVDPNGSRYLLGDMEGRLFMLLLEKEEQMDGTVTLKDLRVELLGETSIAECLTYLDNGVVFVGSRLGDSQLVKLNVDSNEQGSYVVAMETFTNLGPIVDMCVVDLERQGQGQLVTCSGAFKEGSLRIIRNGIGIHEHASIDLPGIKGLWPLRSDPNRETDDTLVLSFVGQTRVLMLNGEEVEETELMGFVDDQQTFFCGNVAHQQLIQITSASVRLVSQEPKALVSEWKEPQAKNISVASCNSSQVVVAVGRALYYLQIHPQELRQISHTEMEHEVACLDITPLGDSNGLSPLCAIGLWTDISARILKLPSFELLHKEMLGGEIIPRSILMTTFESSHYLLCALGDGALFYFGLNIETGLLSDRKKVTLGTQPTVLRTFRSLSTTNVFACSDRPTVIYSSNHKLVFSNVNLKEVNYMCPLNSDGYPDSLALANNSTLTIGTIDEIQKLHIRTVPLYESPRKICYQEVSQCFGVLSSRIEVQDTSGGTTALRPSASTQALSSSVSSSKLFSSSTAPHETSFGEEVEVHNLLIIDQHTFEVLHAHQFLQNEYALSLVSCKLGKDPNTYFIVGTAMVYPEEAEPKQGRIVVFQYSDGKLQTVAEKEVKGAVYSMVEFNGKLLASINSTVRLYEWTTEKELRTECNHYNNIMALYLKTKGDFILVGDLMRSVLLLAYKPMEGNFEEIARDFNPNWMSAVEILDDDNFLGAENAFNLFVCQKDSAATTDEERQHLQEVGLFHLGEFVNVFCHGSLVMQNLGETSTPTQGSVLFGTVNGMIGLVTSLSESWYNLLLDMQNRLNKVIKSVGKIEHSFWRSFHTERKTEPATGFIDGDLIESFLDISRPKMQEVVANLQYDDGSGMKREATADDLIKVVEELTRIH

For the compound `O=C1CCC(N2Cc3cc(OC[C@H]4CCCCN4CC45CC(F)(C4)C5)ccc3C2=O)C(=O)N1` (stereo partly drawn) [Compound I-100, 3-(5-(((R)-1-((3-fluorobicyclo[1.1.1]pentan-1-yl)methyl)piperidin-2-yl)methoxy)-1-oxoisoindolin-2-yl)piperidine-2,6-dione], the remaining activity at up to 25 µM is 17.8% and the DC50 was found to be 410 nM. Besides, the Dmax under setting [1] stood at 82.2%.

Take `O=C1CCC(N2Cc3cc(OC[C@H]4CCCCN4Cc4ccccc4N4CCOCC4)ccc3C2=O)C(=O)N1` (stereo partly drawn) [Compound I-101]: the remaining activity at up to 25 µM was 3.95% and the DC50 was 72 nM. Moreover, the Dmax under setting [1] was determined as 96%.

Take `O=C1CCC(N2Cc3cc(OC[C@H]4CCCCN4Cc4ccc(N5CCN(CC6CC6)CC5)cc4)ccc3C2=O)C(=O)N1` (stereo partly drawn) [Compound I-102, 3-(5-(((R)-1-(4-(4-(cyclopropylmethyl)piperazin-1-yl)benzyl)piperidin-2-yl)methoxy)-1-oxoisoindolin-2-yl)piperidine-2,6-dione]: the remaining activity at up to 25 µM was found to be 17.3% and the DC50 is 240 nM. The Dmax under setting [1] stood at 82.7%.

Consider `O=C1CCC(N2Cc3cc(OC[C@H]4CCCCN4CC4CC5(COC5)C4)ccc3C2=O)C(=O)N1` (stereo partly drawn) [Compound I-104, 3-(5-(((R)-1-((2-oxaspiro[3.3]heptan-6-yl)methyl)piperidin-2-yl)methoxy)-1-oxoisoindolin-2-yl)piperidine-2,6-dione], for which the remaining activity at up to 25 µM came to 12.9% and the DC50 came to 540 nM. Further, under setting [1], the Dmax came out at 87.1%.

With `CC(C)(C)OC(=O)N1CCN(c2ccccc2CN2CCCC[C@@H]2COc2ccc3c(c2)CN(C2CCC(=O)NC2=O)C3=O)CC1` (stereo partly drawn) [Compound I-105, Tert-butyl 4-(2-(((2R)-2-(((2-(2,6-dioxopiperidin-3-yl)-1-oxoisoindolin-5-yl)oxy)methyl)piperidin-1-yl)methyl)phenyl)piperazine-1-carboxylate], the remaining activity at up to 25 µM is 5.23% and the DC50 came out at 55 nM. Besides, the Dmax under setting [1] worked out at 94.8%.

Consider `O=C1CCC(N2Cc3cc(OC[C@H]4CCCCN4Cc4ccccc4N4CCNCC4)ccc3C2=O)C(=O)N1` (stereo partly drawn) [Compound I-106, 3-(1-oxo-5-(((R)-1-(2-(piperazin-1-yl)benzyl)piperidin-2-yl)methoxy)isoindolin-2-yl)piperidine-2,6-dione], for which the remaining activity at up to 25 µM turned out to be 19.9% and the DC50 was determined as 2560 nM. The Dmax under setting [1] was found to be 80.1%.

As to `CC(C)CN1CCN(c2ccccc2CN2CCCC[C@@H]2COc2ccc3c(c2)CN(C2CCC(=O)NC2=O)C3=O)CC1` (stereo partly drawn) [Compound I-107, 3-(5-(((R)-1-(2-(4-isobutylpiperazin-1-yl)benzyl)piperidin-2-yl)methoxy)-1-oxoisoindolin-2-yl)piperidine-2,6-dione], the remaining activity at up to 25 µM was 0.21% and the DC50 was 16 nM. Further, the Dmax under setting [1] amounted to 99.8%.

`O=C1CCC(N2Cc3cc(OC[C@H]4CCCCN4Cc4ccccc4N4CCN(CC5CCOCC5)CC4)ccc3C2=O)C(=O)N1` (stereo partly drawn) [Compound I-108, 3-(1-oxo-5-(((R)-1-(2-(4-((tetrahydro-2H-pyran-4-yl)methyl)piperazin-1-yl)benzyl)piperidin-2-yl)methoxy)isoindolin-2-yl)piperidine-2,6-dione]: the remaining activity at up to 25 µM is 1.93% and the DC50 worked out at 25 nM. Besides, the Dmax under setting [1] is 98.1%.

For `O=C1CCC(N2Cc3cc(OC[C@H]4CCCCN4Cc4ccc(N5CCN(C6CCOCC6)CC5)cc4)ccc3C2=O)C(=O)N1` (stereo partly drawn) [Compound I-109, 3-(1-oxo-5-(((R)-1-(4-(4-(tetrahydro-2H-pyran-4-yl)piperazin-1-yl)benzyl)piperidin-2-yl)methoxy)isoindolin-2-yl)piperidine-2,6-dione], the remaining activity at up to 25 µM was 29.9% and the DC50 is 1500 nM. Moreover, the Dmax under setting [1] came to 70.1%.

`CC(C)(C)OC(=O)N1CCc2cccc(CN3CCCC[C@@H]3COc3ccc4c(c3)CN(C3CCC(=O)NC3=O)C4=O)c21` (stereo partly drawn) [Compound I-110, Tert-butyl 7-(((2R)-2-(((2-(2,6-dioxopiperidin-3-yl)-1-oxoisoindolin-5-yl)oxy)methyl)piperidin-1-yl)methyl)indoline-1-carboxylate]: the remaining activity at up to 25 µM was 0.48% and the DC50 was 8.6 nM. Besides, the Dmax under setting [1] is 99.5%.

With `O=C1CCC(N2Cc3cc(OC[C@H]4CCCCN4Cc4cccc5c4NCC5)ccc3C2=O)C(=O)N1` (stereo partly drawn) [Compound I-111, 3-(5-(((R)-1-(indolin-7-ylmethyl)piperidin-2-yl)methoxy)-1-oxoisoindolin-2-yl)piperidine-2,6-dione], the remaining activity at up to 25 µM came out at 9.3% and the DC50 was determined as 11 nM. In addition, the Dmax under setting [1] came out at 90.7%.

As to `CCN1CCc2cccc(CN3CCCC[C@@H]3COc3ccc4c(c3)CN(C3CCC(=O)NC3=O)C4=O)c21` (stereo partly drawn) [Compound I-112, 3-(5-(((R)-1-((1-ethylindolin-7-yl)methyl)piperidin-2-yl)methoxy)-1-oxoisoindolin-2-yl)piperidine-2,6-dione], the remaining activity was 3.13% and the DC50 worked out at 59 nM. Further, the Dmax under setting [2] came to 96.9%.

As to `O=C1CCC(N2Cc3cc(OC[C@H]4CCCCN4Cc4ccc(F)cc4)ccc3C2=O)C(=O)N1` (stereo partly drawn) [Compound I-113], the remaining activity at up to 25 µM was found to be 0.64% and the DC50 came to 3.8 nM. For the same compound, under setting [1], the Dmax was 99.4%.

`O=C1CCC(N2Cc3cc(OC[C@H]4CCCCN4Cc4ccc(F)cc4Cl)ccc3C2=O)C(=O)N1` (stereo partly drawn) [Compound I-114]: the remaining activity at up to 25 µM worked out at 5.54% and the DC50 was 18 nM. In addition, the Dmax under setting [1] was determined as 94.5%.

`O=C1CCC(N2Cc3cc(OC[C@H]4CCCCN4Cc4ccc(F)cn4)ccc3C2=O)C(=O)N1` (stereo partly drawn) [Compound I-115]: the remaining activity at up to 25 µM stood at 10.5% and the DC50 came out at 170 nM. Moreover, under setting [1], the Dmax was determined as 89.5%.

In the case of `CO[C@H]1C[C@@H](CN2CCCC[C@@H]2COc2ccc3c(c2)CN(C2CCC(=O)NC2=O)C3=O)C1` (stereo partly drawn) [Compound I-118, 3-(5-(((R)-1-(((1s,3S)-3-methoxycyclobutyl)methyl)piperidin-2-yl)methoxy)-1-oxoisoindolin-2-yl)piperidine-2,6-dione], the remaining activity at up to 25 µM came out at 14.6% and the DC50 stood at 380 nM. The Dmax under setting [1] is 85.4%.

Turning to `O=C1CCC(N2Cc3cc(OC[C@H]4CCCCN4Cc4ccccc4N4CCCCC4)ccc3C2=O)C(=O)N1` (stereo partly drawn) [Compound I-119], the remaining activity at up to 25 µM was determined as 2.56% and the DC50 came out at 10 nM. Moreover, the Dmax under setting [1] is 97.4%.

Turning to `CC(C)(C)OC(=O)N1CCC(c2ccccc2CN2CCCC[C@@H]2COc2ccc3c(c2)CN(C2CCC(=O)NC2=O)C3=O)CC1` (stereo partly drawn) [Compound I-122, Tert-butyl 4-(2-(((2R)-2-(((2-(2,6-dioxopiperidin-3-yl)-1-oxoisoindolin-5-yl)oxy)methyl)piperidin-1-yl)methyl)phenyl)piperidine-1-carboxylate], the remaining activity at up to 25 µM worked out at 12.4% and the DC50 stood at 51 nM. Further, the Dmax under setting [1] worked out at 87.6%.

On to `CCN1CCC(c2ccccc2CN2CCCC[C@@H]2COc2ccc3c(c2)CN(C2CCC(=O)NC2=O)C3=O)CC1` (stereo partly drawn) [Compound I-124, 3-(5-(((R)-1-(2-(1-ethylpiperidin-4-yl)benzyl)piperidin-2-yl)methoxy)-1-oxoisoindolin-2-yl)piperidine-2,6-dione], for which the remaining activity at up to 25 µM stood at 5.61% and the DC50 came to 40 nM. Moreover, the Dmax under setting [1] is 94.4%.

Consider `CC(C)(C)OC(=O)N1CCC(c2ccc(CN3CCCC[C@@H]3COc3ccc4c(c3)CN(C3CCC(=O)NC3=O)C4=O)cc2)CC1` (stereo partly drawn) [Compound I-127, Tert-butyl 4-(4-(((2R)-2-(((2-(2,6-dioxopiperidin-3-yl)-1-oxoisoindolin-5-yl)oxy)methyl)piperidin-1-yl)methyl)phenyl)piperidine-1-carboxylate], for which the remaining activity at up to 25 µM worked out at 6.64% and the DC50 was 1.9 nM. Moreover, under setting [1], the Dmax was 93.4%.

For `CCN1CCC(c2ccc(CN3CCCC[C@@H]3COc3ccc4c(c3)CN(C3CCC(=O)NC3=O)C4=O)cc2)CC1` (stereo partly drawn) [Compound I-129, 3-(5-(((R)-1-(4-(1-ethylpiperidin-4-yl)benzyl)piperidin-2-yl)methoxy)-1-oxoisoindolin-2-yl)piperidine-2,6-dione], the remaining activity is 32.3% and the DC50 worked out at 46 nM. Also, under setting [2], the Dmax is 67.7%.

For the compound `COc1ccc(CN2CCCC[C@@H]2COc2ccc3c(c2)CN(C2CCC(=O)NC2=O)C3=O)c(OC)c1` (stereo partly drawn) [Compound I-131, 3-(5-(((R)-1-(2,4-dimethoxybenzyl)piperidin-2-yl)methoxy)-1-oxoisoindolin-2-yl)piperidine-2,6-dione], the remaining activity at up to 25 µM worked out at 11.1% and the DC50 is 0.52 nM. Besides, the Dmax under setting [1] amounted to 88.9%.

Regarding `COc1ccccc1CN1CCCC[C@@H]1COc1ccc2c(c1)CN(C1CCC(=O)NC1=O)C2=O` (stereo partly drawn) [Compound I-133, 3-(5-(((R)-1-(2-methoxybenzyl)piperidin-2-yl)methoxy)-1-oxoisoindolin-2-yl)piperidine-2,6-dione], the remaining activity was 16.7% and the DC50 is 8.8 nM. The Dmax under setting [2] is 83.3%.

As for `O=C1CCC(N2Cc3cc(OC[C@H]4CCCCN4Cc4cccc5c4OCCO5)ccc3C2=O)C(=O)N1` (stereo partly drawn) [Compound I-135, 3-(5-(((R)-1-((2,3-dihydrobenzo[b][1,4]dioxin-5-yl)methyl)piperidin-2-yl)methoxy)-1-oxoisoindolin-2-yl)piperidine-2,6-dione], the remaining activity at up to 25 µM was found to be 18.2% and the DC50 was determined as 34 nM. Also, under setting [1], the Dmax came to 81.8%.
